# Results as given in US20220323406A1, “METHODS AND COMPOSITIONS FOR DIFFERENTIATING STEM CELLS” (Massachusetts Institute of Technology, priority 2019, published 2022).
# Where a name gives a salt, the structure may show the parent alone.
# How the values were obtained:
# [1] = tested on: ENR+CD organoids (ISC to Paneth cell differentiation); experiment: Primary screen: CCh-stimulated lysozyme secretion LYZ.S, 2.5-D 384-well ENR+CD organoid differentiation; assay type: cell-based, mouse; conditions: primary screen, FC relative to plate median
# Text: (§1) High-throughput screening.
# ENR+CD organoids = experiment: Primary screen: ATP (CellTiter-Glo 3D, CTG) cell number/viability, 2.5-D 384-well ENR+CD organoids; conditions: primary screen; for Dose.FC.CTG: FC relative to plate median; for Z.CTG: standard z score;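 as to all read-outs here: compounds given at plating and again on day 3 over a 6-day differentiation from ENR+CV stem-cell-enriched precursors, ATP measured on day 6, plate median as control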
# [2] = tested on: ENR+CD organoids (ISC to Paneth cell differentiation); experiment: Primary screen: basal (non-stimulated) lysozyme secretion LYZ.NS, 2.5-D 384-well ENR+CD organoid differentiation; assay type: cell-based, mouse; conditions: primary screen; for Dose.FC.LYZ.NS: FC relative to plate median; for Z.LYZ.NS: standard z score
# Text: as §1
Compound,Dose.FC.LYZ.S ([1]; dose 0.08 uM),Dose.FC.LYZ.S ([1]; dose 0.40 uM),Dose.FC.LYZ.S ([1]; dose 2.00 uM),Dose.FC.LYZ.S ([1]; dose 10.00 uM),Dose.FC.CTG (ENR+CD organoids; dose 0.08 uM),Dose.FC.CTG (ENR+CD organoids; dose 0.40 uM),Dose.FC.CTG (ENR+CD organoids; dose 2.00 uM),Dose.FC.CTG (ENR+CD organoids; dose 10.00 uM),Dose.FC.LYZ.NS ([2]; dose 0.08 uM),Z.LYZ.NS ([2]; dose 0.08 uM),Dose.FC.LYZ.NS ([2]; dose 0.40 uM),Z.LYZ.NS ([2]; dose 0.40 uM),Dose.FC.LYZ.NS ([2]; dose 2.00 uM),Z.LYZ.NS ([2]; dose 2.00 uM),Dose.FC.LYZ.NS ([2]; dose 10.00 uM),Z.LYZ.NS ([2]; dose 10.00 uM),Z.CTG (ENR+CD organoids; dose 0.08 uM),Z.CTG (ENR+CD organoids; dose 0.40 uM),Z.CTG (ENR+CD organoids; dose 2.00 uM),Z.CTG (ENR+CD organoids; dose 10.00 uM)
CC(C)NCC(O)COc1cccc2ccccc12 (stereo not shown) [Propranolol HCl],0.173 log2 fold change,0.204 log2 fold change,0.091 log2 fold change,0.040 log2 fold change,0.066 log2 fold change,0.054 log2 fold change,0.117 log2 fold change,0.168 log2 fold change,0.048 log2 fold change,0.418,0.074 log2 fold change,0.642,0.164 log2 fold change,1.427,0.032 log2 fold change,0.276,,,,
CCc1nc(N)nc(N)c1-c1ccc(Cl)cc1 [Pyrimethamine],0.042 log2 fold change,−0.026 log2 fold change,−0.162 log2 fold change,−0.282 log2 fold change,0.007 log2 fold change,−0.259 log2 fold change,−0.416 log2 fold change,−0.620 log2 fold change,−0.005 log2 fold change,−0.041,−0.018 log2 fold change,−0.160,−0.144 log2 fold change,−1.255,−0.138 log2 fold change,−1.199,,,,
CC(C)(C)c1cc(NC(=O)Nc2ccc(-c3cn4c(n3)sc3cc(OCCN5CCOCC5)ccc34)cc2)no1 [Quizartinib (AC220)],0.154 log2 fold change,0.083 log2 fold change,−0.077 log2 fold change,−0.200 log2 fold change,0.351 log2 fold change,0.149 log2 fold change,−0.352 log2 fold change,−0.644 log2 fold change,0.096 log2 fold change,0.836,0.039 log2 fold change,0.341,−0.052 log2 fold change,−0.452,−0.173 log2 fold change,−1.505,0.838,0.355,−0.841,−1.539
O=C(NCc1cccc(O)c1)Nc1nc(-c2ccncc2)cs1 [RKI-1447],−0.056 log2 fold change,−0.064 log2 fold change,−0.017 log2 fold change,−0.297 log2 fold change,−0.397 log2 fold change,−0.184 log2 fold change,−0.226 log2 fold change,−0.342 log2 fold change,−0.006 log2 fold change,−0.055,−0.092 log2 fold change,−0.803,−0.009 log2 fold change,−0.077,−0.183 log2 fold change,−1.594,−0.948,−0.441,−0.540,−0.816
Cc1nnc(C(=O)NC(C)(C)c2nc(C(=O)NCc3ccc(F)cc3)c(O)c(=O)n2C)o1 [Raltegravir (MK-0518)],0.137 log2 fold change,0.037 log2 fold change,0.122 log2 fold change,0.183 log2 fold change,0.108 log2 fold change,0.094 log2 fold change,0.197 log2 fold change,0.170 log2 fold change,0.187 log2 fold change,1.627,0.035 log2 fold change,0.302,0.029 log2 fold change,0.254,0.042 log2 fold change,0.366,0.258,0.224,0.471,0.407
CCC(=O)NCC[C@@H]1CCc2ccc3c(c21)CCO3 [Ramelteon],0.030 log2 fold change,0.103 log2 fold change,−0.009 log2 fold change,0.001 log2 fold change,−0.028 log2 fold change,0.155 log2 fold change,−0.315 log2 fold change,0.150 log2 fold change,0.062 log2 fold change,0.537,0.082 log2 fold change,0.712,−0.013 log2 fold change,−0.109,0.007 log2 fold change,0.062,,,,
CNC(=C[N+](=O)[O-])NCCSCc1ccc(CN(C)C)o1 [Ranitidine],−0.020 log2 fold change,0.071 log2 fold change,−0.040 log2 fold change,−0.043 log2 fold change,−0.051 log2 fold change,0.155 log2 fold change,−0.069 log2 fold change,−0.262 log2 fold change,−0.027 log2 fold change,−0.234,0.011 log2 fold change,0.095,−0.045 log2 fold change,−0.389,−0.046 log2 fold change,−0.401,,,,
C#CCN[C@@H]1CCc2ccccc21 [Rasagiline Mesylate],0.140 log2 fold change,0.077 log2 fold change,0.014 log2 fold change,0.026 log2 fold change,0.154 log2 fold change,0.103 log2 fold change,0.041 log2 fold change,0.104 log2 fold change,0.072 log2 fold change,0.631,0.013 log2 fold change,0.117,0.048 log2 fold change,0.417,−0.034 log2 fold change,−0.294,,,,
O=C(NC(Cc1cc(=O)[nH]c2ccccc12)C(=O)O)c1ccc(Cl)cc1 (stereo not shown) [Rebamipide],−0.014 log2 fold change,0.014 log2 fold change,−0.106 log2 fold change,−0.063 log2 fold change,−0.256 log2 fold change,−0.510 log2 fold change,−0.203 log2 fold change,−0.281 log2 fold change,0.096 log2 fold change,0.832,−0.091 log2 fold change,−0.793,−0.090 log2 fold change,−0.780,−0.089 log2 fold change,−0.773,,,,
"CO[C@H]1C[C@@H]2CC[C@@H](C)[C@@](O)(O2)C(=O)C(=O)N2CCCC[C@H]2C(=O)O[C@H]([C@H](C)C[C@@H]2CC[C@@H](OP(C)(C)=O)[C@H](OC)C2)CC(=O)[C@H](C)/C=C(\C)[C@@H](O)[C@@H](OC)C(=O)[C@H](C)C[C@H](C)/C=C/C=C/C=C/1C [Ridaforolimus (Deforolimus, MK-8669)]",0.050 log2 fold change,0.069 log2 fold change,0.019 log2 fold change,0.039 log2 fold change,0.423 log2 fold change,0.066 log2 fold change,0.276 log2 fold change,0.211 log2 fold change,0.005 log2 fold change,0.041,0.116 log2 fold change,1.012,0.074 log2 fold change,0.646,0.027 log2 fold change,0.237,1.011,0.157,0.659,0.505
COc1cc(OC)c(/C=C/S(=O)(=O)Cc2ccc(OC)c(NCC(=O)O)c2)c(OC)c1 [Rigosertib (ON-01910)],−0.309 log2 fold change,−0.355 log2 fold change,−0.340 log2 fold change,−0.330 log2 fold change,−0.905 log2 fold change,−1.285 log2 fold change,−1.668 log2 fold change,−0.847 log2 fold change,−0.242 log2 fold change,−2.105,−0.210 log2 fold change,−1.831,−0.265 log2 fold change,−2.306,−0.242 log2 fold change,−2.107,−2.162,−3.069,−3.984,−2.022
